Measurements as given in the NIST ThermoML archive (doi:10.1016/j.jct.2013.01.032).
Numbers after ± are expanded uncertainties.

Tests used:
[1] = osmotic coefficient (dimensionless); mn = molality of the nth substance listed, in mol/kg; settings: 323.15 K, Liquid, Knauer Osmometer
[2] = mn = molality of the nth substance listed, in mol/kg; settings: 101 kPa, Liquid; for speed of sound: Sing-around technique in a fixed-path interferometer; for mass density: Vibrating tube method

CCCCn1cc[n+](C)c1.O=S(=O)([O-])C(F)(F)F [1-butyl-3-methylimidazolium trifluoromethanesulfonate] + CC(C)O
[1]
Settings	osmotic coefficient
m1 = 0.0255	0.991 ± 0.014
m1 = 0.0473	0.911 ± 0.013
m1 = 0.1132	0.844 ± 0.013
m1 = 0.1803	0.765 ± 0.015
m1 = 0.2949	0.686 ± 0.016
m1 = 0.398	0.624 ± 0.018
m1 = 0.5052	0.588 ± 0.019
m1 = 0.8092	0.518 ± 0.021
m1 = 1.205	0.461 ± 0.023
m1 = 1.615	0.412 ± 0.024
m1 = 2.031	0.391 ± 0.025
m1 = 2.42	0.381 ± 0.025
m1 = 2.829	0.366 ± 0.025
m1 = 3.326	0.356 ± 0.026

[2]
Settings	mass density, 293.15 K [kg/m3]	mass density, 308.15 K [kg/m3]	mass density, 323.15 K [kg/m3]	speed of sound, 293.15 K [m/s]	speed of sound, 308.15 K [m/s]	speed of sound, 323.15 K [m/s]
m1 = 0.049	789.81 ± 0.24	777.07 ± 0.25	763.51 ± 0.25	1158.3 ± 0.8	1106.4 ± 0.8	1053.4 ± 0.7
m1 = 0.1	794.52 ± 0.23	781.8 ± 0.2	768.29 ± 0.24	1159.5 ± 0.8	1108 ± 0.8	1055.5 ± 0.7
m1 = 0.152	799.18 ± 0.23	786.48 ± 0.24	772.99 ± 0.24	1160.9 ± 0.8	1109.6 ± 0.8	1057.4 ± 0.7
m1 = 0.207	804.09 ± 0.23	791.39 ± 0.23	777.93 ± 0.24	1162.6 ± 0.8	1111.2 ± 0.8	1059.3 ± 0.8
m1 = 0.254	808.1 ± 0.22	795.41 ± 0.22	781.98 ± 0.23	1163.3 ± 0.8	1112.5 ± 0.8	1060.8 ± 0.8
m1 = 0.51	828.98 ± 0.21	816.33 ± 0.21	803.01 ± 0.22	1168.6 ± 0.8	1119.1 ± 0.8	1068.8 ± 0.8
m1 = 0.754	847.24 ± 0.19	834.61 ± 0.2	821.37 ± 0.2	1173.2 ± 0.8	1124.8 ± 0.8	1075.6 ± 0.8
m1 = 1.006	864.73 ± 0.18	852.1 ± 0.2	838.92 ± 0.19	1178.4 ± 0.8	1130.5 ± 0.8	1082.3 ± 0.8
m1 = 1.525	896.77 ± 0.17	884.17 ± 0.18	871.1 ± 0.2	1188.1 ± 0.9	1142 ± 0.9	1095.6 ± 0.8
m1 = 1.758	910.13 ± 0.16	897.53 ± 0.17	884.5 ± 0.2	1192.5 ± 0.9	1147 ± 0.9	1101.3 ± 0.9
m1 = 2.05	925.34 ± 0.15	912.77 ± 0.16	899.8 ± 0.2	1197.6 ± 0.9	1153.1 ± 0.9	1108.2 ± 0.9
m1 = 2.526	947.75 ± 0.15	935.19 ± 0.15	922.28 ± 0.16	1206 ± 0.9	1162.5 ± 0.9	1118.6 ± 0.9
m1 = 3.011	967.97 ± 0.15	955.42 ± 0.15	942.57 ± 0.16	1214.3 ± 1	1171.5 ± 0.9	1128.5 ± 0.9

CCCCn1cc[n+](C)c1.O=S(=O)([O-])C(F)(F)F [1-butyl-3-methylimidazolium trifluoromethanesulfonate] + CCCO
[1]
Settings	osmotic coefficient
m1 = 0.0299	0.906 ± 0.016
m1 = 0.0473	0.817 ± 0.014
m1 = 0.0849	0.775 ± 0.015
m1 = 0.0975	0.755 ± 0.015
m1 = 0.2019	0.66 ± 0.017
m1 = 0.2968	0.612 ± 0.018
m1 = 0.4022	0.575 ± 0.019
m1 = 0.5062	0.549 ± 0.02
m1 = 0.8045	0.494 ± 0.022
m1 = 1.206	0.445 ± 0.023
m1 = 1.64	0.412 ± 0.024
m1 = 2.044	0.39 ± 0.025
m1 = 2.44	0.378 ± 0.025
m1 = 2.829	0.361 ± 0.026
m1 = 3.316	0.34 ± 0.026

[2]
Settings	mass density, 293.15 K [kg/m3]	mass density, 308.15 K [kg/m3]	mass density, 323.15 K [kg/m3]	speed of sound, 293.15 K [m/s]	speed of sound, 308.15 K [m/s]	speed of sound, 323.15 K [m/s]
m1 = 0.05	808.59 ± 0.23	796.51 ± 0.23	784.03 ± 0.23	1225.2 ± 0.8	1174.1 ± 0.8	1123.8 ± 0.8
m1 = 0.101	813.12 ± 0.22	801.04 ± 0.23	788.57 ± 0.23	1225.9 ± 0.8	1175.1 ± 0.8	1125.1 ± 0.8
m1 = 0.15	817.38 ± 0.22	805.31 ± 0.22	792.86 ± 0.23	1226.2 ± 0.8	1176 ± 0.8	1126.3 ± 0.8
m1 = 0.2	821.64 ± 0.19	809.57 ± 0.22	797.12 ± 0.16	1226.7 ± 0.8	1176.8 ± 0.8	1127.3 ± 0.8
m1 = 0.25	825.82 ± 0.21	813.75 ± 0.21	801.31 ± 0.22	1227.4 ± 0.8	1177.6 ± 0.8	1128.4 ± 0.8
m1 = 0.758	864.71 ± 0.19	852.6 ± 0.2	840.18 ± 0.2	1232.4 ± 0.9	1184.8 ± 0.8	1137.7 ± 0.8
m1 = 1.004	881.36 ± 0.18	869.23 ± 0.18	856.81 ± 0.18	1235 ± 0.9	1188.2 ± 0.9	1141.9 ± 0.8
m1 = 1.258	897.18 ± 0.17	885.04 ± 0.17	872.62 ± 0.18	1237.6 ± 0.9	1191.7 ± 0.9	1146.2 ± 0.8
m1 = 1.524	912.6 ± 0.16	900.41 ± 0.16	887.99 ± 0.17	1241.2 ± 0.9	1195.4 ± 0.9	1150.5 ± 0.9
m1 = 1.771	925.96 ± 0.15	913.75 ± 0.16	901.33 ± 0.16	1243.6 ± 0.9	1198.7 ± 0.9	1154.5 ± 0.9
m1 = 2.021	938.44 ± 0.15	926.22 ± 0.15	913.81 ± 0.16	1246.4 ± 0.9	1202 ± 0.9	1158.4 ± 0.9
m1 = 2.517	960.93 ± 0.14	948.73 ± 0.15	936.31 ± 0.15	1251.9 ± 1	1208.4 ± 0.9	1165.7 ± 0.9
m1 = 3.011	981.02 ± 0.14	968.77 ± 0.15	956.37 ± 0.15	1257.1 ± 1	1214.8 ± 1	1172.9 ± 0.9
